# Data as given in patent US20030215529A1, “Composition and pharmaceutical preparation containing same for the treatment of herpes and related viral infections” (Dalhousie University, priority 1998, published 2003).
# Key:
# [1] = test system: HSV-1; settings: Xu et al., Heterocycles 1994; cited from earlier work
# [2] = Tabba et al.; cited from earlier work
# [3] = test system: HSV-induced cell fusion; settings: Srinivas et al.; cited from earlier work
# [4] = test system: HSV-1 (acyclovir-sensitive strain, BW-S strain); assay: Plaque reduction assay (Example 6), HSV-1 BW-S strain on Vero cells; assay type: cell-based, herpes simplex virus type 1
# [5] = test system: glycoprotein C-deficient mutant HSV-1; assay: Penetration assay, gC-deficient HSV-1 mutant into Vero cells; assay type: cell-based, herpes simplex virus type 1
# Procedure: (§1) Penetration Assay. The penetration assay was conducted using the method as described in Example with modifications. Confluent Vero cell monolayers in 25 ml tissue culture flasks were chilled to 4° C. for 45 mm. The monolayers were infected with 300 pfu of HSV-1 in 2.5 ml of cold MEM Earle's medium. Attachment was synchronized for 1 h at 4° C. The flasks were washed twice with 4 ml of cold PBS to remove any unbound virus. The monolayers were covered with 5 ml of maintenance medium and shifted to 37° C. […] The flasks were incubated at 37° C. for 90 min, after which the monolayers were washed twice with 4 ml of PBS and covered with 10 ml of 0.8% methylcellulose in maintenance medium. Plaque formation was allowed at 37° C. for 72 h. For the citrate buffer treated group, 3 ml of buffer was added to the monolayers for 1 min. The cells were washed twice with PBS, after which medium was added to allow plaque formation. For the no treatment control group, following medium removal, the monolayers were washed twice with PBS and medium added to allow plaque formation.
# However, by 60 min, all the virus particles appeared to have penetrated.
# [6] = test system: wild-type HSV-1; assay: Penetration assay, wild-type HSV-1 into Vero cells; assay type: cell-based, herpes simplex virus type 1
# Procedure: as §1
# Citrate buffer at pH 3 represents the penetration kinetics of HSV into Vero cells. The low pH removes adherent virus particles from the cell surface (i.e., those that have not yet penetrated). At time 20 min, all the wild type virus particles have penetrated and can not be removed by the low pH buffer (Table 6). […] This reduction is less obvious than the heparin treatment. At time 0 min, only 19% of the virus could penetrate and form plaque as compared to 49% in the heparin treatment.
# [7] = test system: gC-deficient HSV-1, Delta gC2-3; assay: Binding competition experiment, Delta gC2-3; assay type: cell-based, herpes simplex virus type 1; settings: mixed with virus and used immediately
# Procedure: (§2) The anti-herpes effect of sodium heparin was further investigated by a binding competition experiment. In this experiment, 0.5 ml samples of HSV-1 (about 100 pfu) were mixed with 0.5 ml of sodium heparin at different concentrations. The mixtures were immediately used to infect Vero cells at 37° C. for 1 h. Following the incubation, the number of plaques were determined in the plaque assay. […] At 1 mg/ml heparin, the % plaque inhibition was 92%. Similar results were obtained when the gC-deficient HSV-1, Delta gC2-3, was used. In which case, the % plaque inhibition for 62.5 μg/ml and 1 mg/ml heparin were 77% and 86%, respectively.
# [8] = test system: HSV-1 strain Delta gC2-3 (glycoprotein C deficient); assay: Plaque reduction assay, glycoprotein C deficient HSV-1; assay type: cell-based, herpes simplex virus type 1; settings: strain Delta gC2-3, plaque reduction assay
# [9] = test system: HSV-1 strain #15577; assay: Binding competition experiment, strain #15577; assay type: cell-based, herpes simplex virus type 1; settings: mixed with virus and used immediately
# Procedure: as §2
# [10] = test system: HSV-1 strain Delta gC2-3; assay: Binding experiment: residual infectious virus after incubation with sample, Delta gC2-3; assay type: cell-based, herpes simplex virus type 1; settings: 2 mg heparin with 10^5 pfu, 36° C., 1 h; water control = 100%
# Procedure: (§3) The mixture was serially diluted in medium and the number of residual infectious virus was determined by the plaque assay. The number of plaque developed in the water treatment control was taken as 100%.
# [11] = test system: HSV-1; assay: Plaque reduction assay (Example 3), HSV-1 on Vero cells; assay type: cell-based, herpes simplex virus type 1
# [12] = test system: HSV-1 strain #15577; assay: Binding experiment: residual infectious virus after incubation with sample, strain #15577; assay type: cell-based, herpes simplex virus type 1; settings: 2 mg heparin with 10^5 pfu, 36° C., 1 h; water control = 100%
# Procedure: as §3
# [13] = test system: HSV-2, Strain no. 333; assay: HSV-2 mouse vaginal infection model, survival; assay type: in vivo, BALB/c mice; settings: 3% Acyclovir cream
# Procedure: (Batch no. 200205), provided by the Department of Biology, the Chinese University of Hong Kong, Hong Kong. […] Virus is Herpes simplex type II (HSV-2, Strain no. 333, batch no. 200104010), provided by the Department of Virological Diagnosis, Institution of Virology, Chinese Preventative Medical Academy. Needles for vaginal tract infection (size no. of 12) were prepared by the Department of Virological Diagnosis, Chinese Preventative Medical Academy. African green monkey kidney cells (Vero cells) were provided by the Department of Virological Diagnosis, Chinese Preventative Medical Academy. Physiological saline and cell culture medium was provided by the Department of Virological Diagnosis, Chinese Preventative Medical Academy. Inverted microscope was provided by the Department of Virological Diagnosis, Chinese Preventative Medical Academy. Carbon dioxide incubator was provided by the Department of Virological Diagnosis, Chinese Preventative Medical Academy. And other related apparatuses: provided by the Department of Virological Diagnosis, Chinese Preventative Medical Academy.
# Animals: BALB/c mice, female, body weight range of 18-20 grams. Animal license no. YDHZ 01-3003, supplied by the Animal Center of the Chinese Medical Academy and Peking Union Medical College.
# 1. Target of the experiments: The mice could develop viral vaginitis following infection with HSV-2. […] Statistical analysis, t values and p values, was calculated in comparison with the virus control group. Efficacy of the testing samples will be evaluated on the basis of statistical calculation.
# 2. […] The number of animals per group was 10. Ten additional animals that were not infected with HSV-2 and received no treatment served as the uninfected control group.
# Treatment began on day 3 post-infection. This was achieved by applying the cream to the vaginal tract with cotton swabs. The creams were given at a dose of 2 mg per mouse twice daily for a six-day duration. Mortality and the number of days for lethality to occur were recorded. The experiment was repeated twice. The protection rates and life span extension rates were calculated. The efficacy of testing agents were judged in comparison with the […] on the basis of the calculated t values and p values.
# The survival rate and number of days for lethality to occur were recorded. The latter was expressed as the average life span in days.
# [14] = test system: HSV-1, Strain no. SM44; assay: HSV-1 skin lesion model in guinea pigs; assay type: in vivo, guinea pig; settings: for Extent of Skin Pathological Changes EPC (Mean ± SD) / Inhibition rate IR: Acyclovir cream 3 g %
# Excerpt: Material. […] Virus is Herpes simplex type 1 (HSV-1, Strain no. SM44), imported from The American Type Culture Collection. The virus strain was proliferated and preserved by the Department of Virological Diagnosis, Institution of Virology, Chinese Preventative Medical Academy. “Bunched needle” refers to seven individual needles (size No. 7) bunched together as one bunch and seven bunches were put together as one “Bunched needle”. Other related apparatuses: All other apparatuses and reagents were provided by the Department of Virological Diagnosis, Chinese Preventative Medical Academy.
# Animals: Guinea pigs, half male and half female, 200-250 grams (animal license no. YDHZ SCXK11-00-0006), supplied by the Animal Center of the Chinese Medical Academy and Peking Union Medical College.
# HSV-1 cutaneous lesion in guinea pig. The animals were grouped in 5. Animals within each group will be the same gender and have similar body weight. The hair was removed from dorsal side of the animal and the skin was abraded with needles as described above. The entire abraded area was infected with 150 μl of HSV-1 stock suspension.
# Typical herpes lesions appeared on the infected area on the 4th day of infection. The extent of pathological changes was scored as described below. […] The amount of cream given to each animal was 1.5 gram per dose twice daily for a six-day duration.
# Daily records of the pathological changes infected area were made according to the following criteria:
# When the skin lesions developed up to ¼ of the total area, the pathological changes were scored as 1.0-1.6;
# When the skin lesions developed on 2/4 of the total area, the pathological changes were scored as 1.7-2.4;
# When the skin developed on ¾ of the total area, the pathological changes were scored as 2.5-3.2;
# When the skin lesions developed 4/4 of the total areas, the pathological changes were scored as 3.3-4.0;
# When the skin herpes scars developed up to ¼ of the total areas, the pathological changes were scored as 0.9-1.0;
# When the skin herpes scars were up to 2/4 of the total areas, the pathological changes were scored as 0.7-0.8;
# When the skin herpes scars were up to ¾ of the total areas, the pathological changes were scored as 0.5-0.6;
# When the skin herpes scars were up to 4/4 of the total areas, the pathological changes were scored as 0.2-0.4;
# When the skin herpes scars were all detached and lesions healed, the pathological changes were scored as 0.
# [15] = test system: HSV-2, Strain no. 333; assay: Recovery of HSV-2 from vaginal samples of infected mice (CPE on Vero cells); assay type: in vivo, BALB/c mice; settings: Acyclovir cream 3 g %
# [16] = Heparin 1000 μg/ml added at Time 0 min
# [17] = Heparin 1000 μg/ml added at Time 10 min
# [18] = Heparin 1000 μg/ml added at Time 20 min
molecule,measurement,setting,value
geponin,IC50 against HSV-1,[1],25 µg/mL
prunellin,pH in aqueous solution,[2],7.4
apolipoprotein A-I: high density serum apolipoprotein A-I,concentration inhibiting HSV-induced cell fusion,[3],1 µM
O=Cc1cc(O)c(O)c(O)c1 [gallic aldehyde],IC50 against HSV-1,[1],12.5 µg/mL
heparin,anti-HSV-1 IC50,[4],300 µg/mL
same,% Plaques,[5]; [16],62%
same,% Plaques,[5]; [17],90%
same,% Plaques,[5]; [18],100%
same,% Plaques,[5]; Heparin 1000 μg/ml added at Time 30 min,100%
same,% Plaques,[5]; Heparin 1000 μg/ml added at Time 40 min,100%
same,% Plaques,[5]; Heparin 1000 μg/ml added at Time 50 min,84%
same,% Plaques,[5]; Heparin 1000 μg/ml added at Time 60 min,100%
same,effects on the penetration of the gC-deficient mutant into Vero cells,"[5]; heparin 1000 μg/ml, in words",no apparent effects
same,% Plaques,[6]; [16],49%
same,% Plaques,[6]; Heparin 1000 μg/ml added at Time 2 min,57%
same,% Plaques,[6]; Heparin 1000 μg/ml added at Time 4 min,88%
same,% Plaques,[6]; Heparin 1000 μg/ml added at Time 6 min,86%
same,% Plaques,[6]; [17],100%
same,% Plaques,[6]; Heparin 1000 μg/ml added at Time 15 min,100%
same,% Plaques,[6]; [18],100%
same,% plaque inhibition,[7]; 62.5 μg/ml,77%
same,% plaque inhibition,[7]; 1 mg/ml,86%
same,IC50,[8],> 1000 µg/mL
same,% plaque inhibition,[9]; 62.5 μg/ml,88%
same,% plaque inhibition,[9]; 1 mg/ml,92%
same,original virus still infectious,[10],42%
same,IC50,"[11]; HSV-1 strain #15577, plaque reduction assay",750 µg/mL
same,IC50 values,"[11]; plaque reduction assay, added 1 h after virus, strains 15577 and Delta gC2-3",750 to 1000 µg/mL
same,original virus still infectious,[12],30%
Nc1nc2c(ncn2COCCO)c(=O)[nH]1 [Acyclovir],Life Span Extension Rate,[13],81.2%
same,Protection Rate,[13],78.6%
same,Survival,[13],80%
same,No. of death,[13]; 30 animals,6
same,No. of survival,[13]; 30 animals,24
same,Life Span Extension Rate,[13]; listed as acyclovir,81.3%
same,Extent of Skin Pathological Changes EPC (Mean ± SD),[14]; Day 4 (start of treatment),3.87 ± 0.12 cm^2
same,Inhibition rate IR,[14]; Day 4 (start of treatment),0%
same,Extent of Skin Pathological Changes EPC (Mean ± SD),[14]; Day 5,3.54 ± 0.22 cm^2
same,Inhibition rate IR,[14]; Day 5,11%
same,Extent of Skin Pathological Changes EPC (Mean ± SD),[14]; Day 6,2.77 ± 0.40 cm^2
same,Inhibition rate IR,[14]; Day 6,30%
same,Extent of Skin Pathological Changes EPC (Mean ± SD),[14]; Day 7,2.02 ± 0.30 cm^2
same,Inhibition rate IR,[14]; Day 7,44%
same,Extent of Skin Pathological Changes EPC (Mean ± SD),[14]; Day 8,1.21 ± 0.38 cm^2
same,Inhibition rate IR,[14]; Day 8,63%
same,Extent of Skin Pathological Changes EPC (Mean ± SD),[14]; Day 9,0.82 ± 0.16 cm^2
same,Inhibition rate IR,[14]; Day 9,71%
same,Extent of Skin Pathological Changes EPC (Mean ± SD),[14]; Day 10,0.38 ± 0.18 cm^2
same,Inhibition rate IR,[14]; Day 10,84%
same,Extent of Skin Pathological Changes EPC (Mean ± SD),[14]; Day 11,0.09 ± 0.19 cm^2
same,Inhibition rate IR,[14]; Day 11,96%
same,signs of paralysis in lower limbs,"[14]; cream-treated groups, seen in some animals of the virus control group",not observed
same,Therapeutic Rate,[15],71%
same,No. of samples containing HSV-2 After Treatment,[15]; 30 vaginal samples,8
same,No. of samples containing HSV-2 Before Treatment,[15]; 30 vaginal samples,30
